Assays:
Type in all cases: in vivo
[1] = test system: barnyardgrass (Echinochloa crus-galli); assay: Test A preemergence
Summary of the method: (§1)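 Seeded soil received test chemicals as a preemergence directed spray, and seedlings at one to two leaves, 2–10 cm tall, received them postemergence, in a non-phytotoxic, surfactant-containing solvent mixture. Pots were held in a greenhouse for approximately 10 d, then rated for injury from 0, no effect, to 100, complete control.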

corn (Zea mays) [2] = assay: Test A preemergence
Summary of the method: as §1

[3] = test system: crabgrass, large (Digitaria sanguinalis); assay: Test A preemergence
Summary of the method: as §1

[4] = test system: giant foxtail (Setaria faberii); assay: Test A preemergence
Summary of the method: as §1

[5] = test system: morningglory (Ipomoea spp.); assay: Test A preemergence
Summary of the method: as §1

[6] = test system: pigweed (Amaranthus retroflexus); assay: Test A preemergence
[7] = test system: velvetleaf (Abutilon theophrasti); assay: Test A preemergence
Summary of the method: as §1

[8] = test system: wheat (Triticum aestivum); assay: Test A preemergence
Summary of the method: as §1

[9] = test system: barnyardgrass (Echinochloa crus-galli); assay: Test A postemergence
Summary of the method: as §1

corn (Zea mays) [10] = assay: Test A postemergence
Summary of the method: as §1

[11] = test system: crabgrass, large (Digitaria sanguinalis); assay: Test A postemergence
Summary of the method: as §1

[12] = test system: giant foxtail (Setaria faberii); assay: Test A postemergence
Summary of the method: as §1

[13] = test system: morningglory (Ipomoea spp.); assay: Test A postemergence
Summary of the method: as §1

[14] = test system: pigweed (Amaranthus retroflexus); assay: Test A postemergence
Summary of the method: as §1

[15] = test system: velvetleaf (Abutilon theophrasti); assay: Test A postemergence; settings: 500 g ai/ha, postemergence; 0 to 100 scale, 0 no effect, 100 complete control
Summary of the method: as §1

[16] = test system: wheat (Triticum aestivum); assay: Test A postemergence
Summary of the method: as §1

[17] = test system: barnyardgrass (Echinochloa crus-galli); assay: Test C flooded paddy test; settings: Flood, 0 is no effect, 100 is complete control
Summary of the method: (§2)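 Rice, small-flower umbrella sedge, ducksalad and barnyardgrass at the 2-leaf stage were flooded to 3 cm, and compound was applied into the paddy water. After 13 to 15 d in a greenhouse, plants were rated visually against controls on a 0 (no effect) to 100 (complete control) scale.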

[18] = test system: ducksalad (Heteranthera limosa); assay: Test C flooded paddy test; settings: Flood, 0 is no effect, 100 is complete control
Summary of the method: as §2

rice (Oryza sativa) = assay: Test C flooded paddy test; settings: Flood, 0 is no effect, 100 is complete control
Summary of the method: as §2

[19] = test system: sedge, umbrella (small-flower umbrella sedge, Cyperus difformis); assay: Test C flooded paddy test; settings: Flood, 0 is no effect, 100 is complete control
Summary of the method: as §2

[20] = 125 g ai/ha, preemergence, 0 to 100 scale (0 no effect, 100 complete control)
[21] = Preemergence, 500 g ai/ha, 0 is no effect, 100 is complete control
[22] = 500 g ai/ha, postemergence, 0 to 100 scale, 0 no effect, 100 complete control
[23] = Postemergence, 125 g ai/ha, visual injury, 0 to 100 scale (0 no effect, 100 complete control), approx. 10 d

O=C1NCC(c2ccoc2)C1C(=O)Nc1ccccc1C(F)(F)F (racemic) [Compound 364]
0: Plant response rating, Barnyardgrass [1, 20] | Barnyardgrass plant response rating (0 to 100 scale) [1, 21] | Plant response rating, Corn (corn (Zea mays) [2]; [20]) | Corn plant response rating (0 to 100 scale) (corn (Zea mays) [2]; [21]) | Plant response rating, Crabgrass, Large [3, 20] | Crabgrass, Large plant response rating (0 to 100 scale) [3, 21] | Plant response rating, Foxtail, Giant [4, 20] | Foxtail, Giant plant response rating (0 to 100 scale) [4, 21] | Plant response rating, Morningglory [5, 20] | Morningglory plant response rating (0 to 100 scale) [5, 21] | Plant response rating, Pigweed [6, 20] | Pigweed plant response rating (0 to 100 scale) [6, 21] | Plant response rating, Velvetleaf [7, 20] | Velvetleaf plant response rating (0 to 100 scale) [7, 21] | Plant response rating, Wheat [8, 20] | Wheat plant response rating (0 to 100 scale) [8, 21] | Plant response rating, Barnyardgrass [9, 22] | Plant response rating, Barnyardgrass [9, 23] | Plant response rating, Corn (corn (Zea mays) [10]; [22]) | Plant response rating, Corn (corn (Zea mays) [10]; [23]) | Plant response rating, Crabgrass, Large [11, 22] | Plant response rating, Crabgrass, Large [11, 23] | Plant response rating, Foxtail, Giant [12, 22] | Plant response rating, Foxtail, Giant [12, 23] | Plant response rating, Morningglory [13, 22] | Plant response rating, Morningglory [13, 23] | Plant response rating, Pigweed [14, 22] | Plant response rating, Pigweed [14, 23] | Plant response rating, Velvetleaf [15] | Plant response rating, Wheat [16, 22] | Plant response rating, Wheat [16, 23] | Plant response rating (scale of 0 to 100), Barnyardgrass ([17]; 31 g ai/ha) | Plant response rating (scale of 0 to 100), Barnyardgrass ([17]; 62 g ai/ha) | Plant response rating (scale of 0 to 100), Barnyardgrass ([17]; 125 g ai/ha) | Plant response rating (scale of 0 to 100), Barnyardgrass ([17]; 250 g ai/ha) | Plant response rating (scale of 0 to 100), Ducksalad ([18]; 31 g ai/ha) | Plant response rating (scale of 0 to 100), Ducksalad ([18]; 62 g ai/ha) | Plant response rating (scale of 0 to 100), Ducksalad ([18]; 125 g ai/ha) | Plant response rating (scale of 0 to 100), Ducksalad ([18]; 250 g ai/ha) | Plant response rating (scale of 0 to 100), Rice (rice (Oryza sativa); 31 g ai/ha) | Plant response rating (scale of 0 to 100), Rice (rice (Oryza sativa); 62 g ai/ha) | Plant response rating (scale of 0 to 100), Rice (rice (Oryza sativa); 125 g ai/ha) | Plant response rating (scale of 0 to 100), Rice (rice (Oryza sativa); 250 g ai/ha) | Plant response rating (scale of 0 to 100), Sedge, Umbrella ([19]; 31 g ai/ha) | Plant response rating (scale of 0 to 100), Sedge, Umbrella ([19]; 62 g ai/ha) | Plant response rating (scale of 0 to 100), Sedge, Umbrella ([19]; 125 g ai/ha) | Plant response rating (scale of 0 to 100), Sedge, Umbrella ([19]; 250 g ai/ha)

— patent publication US12077503B2, “Substituted cyclic amides and their use as herbicides” (FMC CORPORATION, priority 2015, dated 2024)
